Here are results for 1 compound from patent EP1657232A1, “Use of S-enantiomers of alpha-sustituted aryl acetic acids for the prevention of Alzheimer's disease” (CELLZOME AG, priority 2004, dated 2006).

The experiment has as its target T1, cyclooxygenase-1 (Cox-1) (Ovis aries, UniProt P05979).
T1 construct: purchased Cayman Chemical Company 760111
T1 sequence (P05979 25-600): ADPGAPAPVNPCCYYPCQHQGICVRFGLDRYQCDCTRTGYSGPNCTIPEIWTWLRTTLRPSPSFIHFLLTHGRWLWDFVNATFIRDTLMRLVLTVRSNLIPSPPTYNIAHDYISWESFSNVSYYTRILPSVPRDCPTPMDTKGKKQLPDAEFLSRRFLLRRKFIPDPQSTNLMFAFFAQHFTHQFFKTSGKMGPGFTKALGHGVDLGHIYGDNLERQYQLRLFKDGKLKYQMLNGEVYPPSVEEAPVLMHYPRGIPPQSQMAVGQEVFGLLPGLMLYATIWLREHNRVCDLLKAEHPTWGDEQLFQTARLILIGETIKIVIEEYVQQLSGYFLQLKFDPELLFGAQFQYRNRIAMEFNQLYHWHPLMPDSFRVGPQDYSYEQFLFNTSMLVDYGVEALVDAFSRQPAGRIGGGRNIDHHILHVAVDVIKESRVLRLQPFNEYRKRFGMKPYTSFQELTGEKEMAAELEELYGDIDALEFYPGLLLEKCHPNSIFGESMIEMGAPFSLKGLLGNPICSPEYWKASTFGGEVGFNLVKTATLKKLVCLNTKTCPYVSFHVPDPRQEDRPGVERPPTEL
In words: Colorimetric Cox inhibitor screening assay (Cayman Chemical, Cat. No. 760111). Format: biochemical. How it is done:
Inhibition of Cox-1 is determined using the Colorimetric Cox inhibitor screening assay provided by Cayman Chemical Company, Ann Arbor, MI, USA. (Cat. No. 760111) according to manufacturer's instructions.

Take `CC(C)[C@H](C(=O)O)c1ccc(-c2cccc(C(F)(F)F)c2)cc1` [title compound of example 1, 2(S)-(3'-trifluoromethyl-biphenyl-4-yl)-3-methyl-butanoic acid]: the “inhibitory effect against Cox-1 activity” value is on record as “no inhibitory effect”.
